According to US8551999B2, “Heterocyclic compound and pharmaceutical composition thereof” (Otsuka Pharmaceutical Co., Ltd., priority 2007, dated 2013):
Where a name gives a salt, the structure may show the parent alone.

Key:
STAT3 = assay: Inhibitory effect on IL-6-induced STAT3 phosphorylation in human myeloma cells (in vitro); assay type: cell-based; conditions: U266B1 human myeloma cells, IL-6 1 ng/mL, pSTAT3 (Y705) by flow cytometry
Method: The inhibitory effect of the test compound on phosphorylation of STAT3 (signal transducer and activator of transcription-3) in human myeloma cells ([…]) induced by interleukin-6 (IL-6) was examined using the modified method of Tochizawa S. et al. (J Immunol Methods. 2006 Jun. 30; 313(1-2): 29-37). In the study, U266B1 cells were seeded in an RPMI 1640 medium containing 10% fetal bovine serum (FBS) in a 12-well plate and incubated at 37° C. for 2 hours in the presence of carbon dioxide. After incubation, IL-6 was added to yield the concentration of 1 ng/mL and the cells were incubated at 37° C. for 15 minutes in the presence of 5% carbon dioxide. After fixation of the cells by the addition of a buffer containing formaldehyde (Lyse/Fix Buffer, BD Biosciences) at room temperature for 10 minutes, the suspension was centrifuged to remove the supernatant and the cells were treated with ice-cold methanol for 10 minutes to improve the permeability of the cell membrane. The cells were centrifuged to remove methanol and washed twice with Dulbecco's phosphate buffered saline (D-PBS) containing 2% fetal bovine serum (FBS). A fluorescence-labeled anti-phosphorylated STAT3 (pSTAT3) antibody (Alexa Fluor 488-labeled anti-pSTAT3 (Y705) antibody, BD Biosciences) was added for staining in an ice bath for 30 minutes.
The cells were washed once with 2% FBS-containing D-PBS and suspended in 2% FBS-containing D-PBS, and the fluorescence intensity was determined using a flow cytometer (FACS Sort, BD Biosciences). The ratio of fluorescence intensity in the test group to the control group (T/C) was determined from the difference in the geometric mean of pSTAT3 fluorescence intensity between the test compound group of each concentration and the non-stimulated control group according to the following equation by defining the difference in the geometric mean of pSTAT3 fluorescence intensity between the IL-6 induced control and the non-stimulated control as 100%. T/C(%)=([…] of pSTAT3 fluorescence intensity in the cells treated with the test compound—geometric mean of pSTAT3 fluorescence intensity in non-stimulated control)/(geometric mean of fluorescence intensity of IL-6-induced pSTAT3 in the control−geometric mean of pSTAT3 fluorescence intensity in non-stimulated control)×100.
The concentration of the test compound inhibiting phosphorylation of STATS at 50% (IC50; concentration of the test compound corresponding to 50% T/C(%)) was determined using T/C(%) values at the respective concentrations and defined as the index for the inhibitory activity.

[1] = test system: human pancreatic cancer cells (HPAC); assay: Antiproliferative effect on cancer cells (in vitro), sulforhodamine B method, HPAC; assay type: cell-based; conditions: 5 days incubation with test compound
Method: (§1) Growth inhibition of human hepatic cancer cells (HuH-7) was determined by the sulforhodamine B method based on the method of Skehan P. et al. (J Natl Cancer Inst. 1990 Jul. 4; 82(13): 1107-12). In the study, HuH-7 cells were seeded on DMEM medium containing 10% fetal bovine serum in a 96-well microplate. After 24-hour incubation at 37° C. in the presence of 5% carbon dioxide, the test compound was added and the cells were incubated for another 5 days. After incubation, a trichloroacetic acid solution was added to yield the final concentration of 10% and the cells were left to stand at 4° C. for 1 hour to fix. Then, the cells were washed with water to remove the medium and trichloroacetic acid and dried in the air. The dried cells were stored at 4° C. until they were stained with sulforhodamine B. To each well, 1% acetic acid solution containing 0.4% sulforhodamine B was added and left to stand for 20 to 30 minutes at room temperature. After discarding the supernatant, each well was washed with 1% acetic acid solution, and 10 mM Tris ([…]) solution was added while stirring to elute the dye taken into the cells. Then, the optical density was determined at the measurement wavelength of 492 nm and the reference wavelength of 690 nm, and the difference was calculated. The cell growth activity in each well was defined as the value determined by subtracting the OD in the control well not containing cells (the difference in absorbance between 492 nm and 690 nm) from that in the test well.
(§2) The 50% inhibitory concentration (IC50 (nM)) of the test compound was determined by comparing the cell growth activity in the well containing the test compound with that of the control not containing the test compound.
The growth inhibition on human pancreatic cancer cells (HPAC) was also determined by the above method using HPAC instead of HuH-7 and RPMI 1640 medium containing 10% fetal bovine serum instead of the DMEM medium containing 10% fetal bovine serum.

[2] = test system: human chronic myelocytic leukemia cells (KU812); assay: Antiproliferative effect on cancer cells (in vitro), WST-8 assay, KU812; assay type: cell-based; conditions: 5 days incubation with test compound
Method: The growth inhibition on human chronic myelocytic leukemia cells (KU812) was determined by a WST-8 assay according to the method of Singh A K, et al. (Cancer Lett. 1996 Oct. 1; 107(1): 109-15.). In this method, KU812 cells were seeded in RPMI 1640 medium containing 10% fetal bovine serum in a 96-well microplate and incubated at 37° C. for 24 hours in the presence of 5% carbon dioxide. Then, the test compound was added and the cells were incubated for another 5 days. After incubation, 15 μL of 5 mM WST-8 (2-(2-methoxy-4-nitrophenyl)-3-(4-nitrophenyl)-5-(2,4-disulfenyl)-2H-tetrazolium, monosodium salt) was added and the cells were incubated for 2 hours. After the 2-hour incubation, 15 μL of 1% SDS (sodium dodecyl sulfate) was added and the optical density was determined at the measurement wavelength of 450 nm and the reference wavelength of 630 nm, and the difference was calculated. The cell growth activity in each well was defined as the value determined by subtracting the OD in the control well not containing cells (the difference in absorbance between 492 nm and 690 nm) from that in the test well.
as §2

[3] = test system: human hepatic cancer cells (HuH-7); assay: Antiproliferative effect on cancer cells (in vitro), sulforhodamine B method, HuH-7; assay type: cell-based; conditions: HuH-7 cells, 5 days incubation with test compound
Method: as §1, §2

[4] = test system: LI90 cells, a human hepatic stellate cell line; assay: Inhibitory effect on collagen synthesis (in vitro); assay type: cell-based; conditions: in the presence of recombinant human TGF-β1, 3H-proline labelled collagen in supernatant
Method: Inhibitory Effect on Collagen Synthesis (In Vitro)
LI90 cells, a human hepatic stellate cell line, were suspended in DMEM (Dulbecco's modified eagle medium) supplemented with 10% inactivated FBS (fetal bovine serum), seeded on a 12-well plate and cultured in a CO2 incubator (preset temperature: 37° C., preset CO2 concentration: 5%). After being cultured for 24 hours, the cells were washed with D-PBS (Dulbecco's phosphate buffered saline), placed in MEM (Eagle's minimum essential medium) supplemented with 0.1% inactivated FBS and then cultured in a CO2 incubator. After being cultured for 3 days, the cells were again washed with D-PBS, placed in MEM (Eagle's minimum essential medium) supplemented with 0.1% inactivated FBS and treated with or without a test compound in the presence of […] recombinant human TGF-β1 (transforming growth factor-β1) in a CO2 incubator for 16 hours. After the incubation, the cells were washed with D-PBS and the medium was replaced with MEM containing 0.25 mM ascorbate. A radio-labeled compound, ^3H-proline, was then added to the culture medium to radio-label the collagen proteins produced. After being cultured for 24 hours, the supernatant was collected and the collagen proteins were extracted from the supernatant as acid-soluble fractions. The amount of collagen produced was determined by measuring the radioactivity contained in the fractions. A concentration of test compound that produced 50% inhibition [IC50 value (nM)] on collagen synthesis was calculated by comparing the radioactivity count in a supernatant of test-compound-treated cells with that of untreated cells (control).

melting point [°C]	IC50 (STAT3) [nM]	Compound	also measured
131 to 135	< 10	CCOc1ccc(CN2CCN(C(=O)c3cc4cc(Oc5ccc(N(C)C(=O)c6ccc(C(F)(F)F)cc6)cn5)ccc4n3C)CC2)cc1.O=C(O)/C=C\C(=O)O [Example 342, N-(6-{2-[4-(4-Ethoxybenzyl)piperazine-1-carbonyl]-1-methyl-1H-indol-5-yloxy}pyridin-3-yl)-N-methyl-4-trifluoromethylbenzamide maleate]	
137 to 139	< 10	CN(C(=O)c1ccc(C(F)(F)F)cc1)c1ccc(Oc2ccc3c(c2)cc(C(=O)N2CCN(Cc4ccc(OC(F)(F)C(F)F)cc4)CC2)n3C)nc1.O=C(O)/C=C\C(=O)O [Example 403, N-Methyl-N-[6-(1-methyl-2-{4-[4-(1,1,2,2-tetrafluoroethoxy)-benzyl]piperazine-1-carbonyl}-1H-indol-5-yloxy)pyridin-3-yl]-4-trifluoromethylbenzamide maleate]	
251 to 253	< 10	Br.CC(C)Oc1ccc(CN2CCN(C(=O)c3cc4ccc(Oc5ccc(N(C)C(=O)c6ccc(C(F)(F)F)cc6)cn5)cc4n3C)CC2)cc1 [Example 421, N-(6-{2-[4-(4-Isopropoxybenzyl)piperazine-1-carbonyl]-1-methyl-1H-indol-6-yloxy}pyridin-3-yl)-N-methyl-4-trifluoromethyl-benzamide hydrobromide]	
		CCOc1ccc(CN2CCN(C(=O)c3cc4cc(Oc5ccc(N(C)C(=O)c6ccc(C(F)(F)F)cc6)c(C)n5)ccc4n3C)CC2)cc1 [Example 368, N-(6-{2-[4-(4-Ethoxybenzyl)piperazine-1-carbonyl]-1-methyl-1H-indol-5-yloxy}-2-methylpyridin-3-yl)-h=methyl-4-trifluoromethyl-benzamide hydrobromide]	IC50 [1]: < 70 nM; IC50 [2]: < 2 nM; IC50 [3]: < 10 nM
246 to 248	< 10	Br.CCCOc1ccc(CN2CCN(C(=O)c3cc4ccc(Oc5ccc(N(C)C(=O)c6ccc(C(F)(F)F)cc6)cn5)cc4n3C)CC2)cc1 [Example 420, N-Methyl-N-(6-{1-methyl-2-[4-(4-propoxybenzyl)piperazine-1-carbonyl]-1H-indol-6-yloxy}pyridin-3-yl)-4-trifluoromethyl-benzamide hydrobromide]	
129 to 130	< 10	CCOc1ccc(CN2CCN(C(=O)c3cc4cc(Oc5ccc(N(C)C(=O)c6ccc(C(F)(F)F)cc6)cn5)ccc4n3C)CC2)nc1.O=C(O)/C=C\C(=O)O [Example 417, N-(6-{2-[4-(5-Ethoxypyridin-2-ylmethyl)piperazine-1-carbonyl]-1-methyl-1H-indol-5-yloxy}pyridin-3-yl)-N-methyl-4-trifluoromethyl-benzamide maleate]	
240 to 243	< 10	Cc1ccc(S(=O)(=O)N(C)c2ccc(Oc3ccc4cc(C(=O)N5CCN(Cc6ccc7c(c6)OC(F)(F)O7)CC5)n(C)c4c3)nc2)cc1.Cl [Example 526, N-(6-{2-[4-(2,2-Difluorobenzo[1,3]dioxol-5-ylmethyl)piperazine-1-carbonyl]-1-methyl-1H-indol-6-yloxy}pyridin-3-yl)-4,N-dimethyl-benzenesulfonamide hydrochloride]	
267 to 270	< 10	Br.CN(C(=O)c1ccc(C(F)(F)F)cc1)c1ccc(Oc2ccc3cc(C(=O)N4CCN(Cc5ccc(C#N)cc5)CC4)n(C)c3c2)nc1 [Example 321, N-(6-{2-[4-(4-Cyanobenzyl)piperazine-1-carbonyl]-1-methyl-1H-indol-6-yloxy}pyridin-3-yl)-N-methyl-4-trifluoromethylbenzamide hydrobromide]	
140.9 to 145.8	< 10	Cc1ccc(S(=O)(=O)N(C)c2ccc(Oc3ccc4cc(C(=O)N5CCN(Cc6ccc(OC(C)C)cc6)CC5)n(C)c4c3)nc2)cc1 [Example 525, N-(6-{2-[4-(4-Isopropoxybenzyl)piperazine-1-carbonyl]-1-methyl-1H-indol-6-yloxy}pyridin-3-yl)-4,N-dimethylbenzenesulfonamide]	
186.8 to 187	< 10	CC(C)Oc1ccc(CN2CCN(C(=O)c3cc4ccc(Oc5ccc(N(C)S(=O)(=O)c6ccc(Cl)c(Cl)c6)cn5)cc4n3C)CC2)cc1 [Example 507, 3,4-Dichloro-N-(6-{2-[4-(4-isopropoxybenzyl)piperazine-1-carbonyl]-1-methyl-1H-indol-6-yloxy}pyridin-3-yl)-N-methyl-benzenesulfonamide]	
227.5 to 230.3		Br.CN(C(=O)c1ccc(OC(F)(F)F)cc1)c1ccc(Oc2ccc3cc(C(=O)N4CCN(Cc5ccc(OC(CF)CF)cc5)CC4)n(C)c3c2)nc1 [Example 279, N-[6-(2-{4-[4-(2-Fluoro-1-fluoromethylethoxy)benzyl]piperazine-1-carbonyl}-1-methyl-1H-indol-6-yloxy)pyridin-3-yl]-N-methyl-4-tri-fluoromethoxybenzamide hydrobromide]	IC50 [4]: < 10 nM
